Measurements published in PubChem BioAssay (NCI).
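Each compound was tested at five concentrations against cells in 96-well plates for 48 hours. TGI: total growth inhibition.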

How the values were obtained:
Test in all cases: NCI anticancer screen, dose series, 48 h
MOLT-4 leukemia = system: MOLT-4 leukemia
HCT-15 colon = system: HCT-15 colon
SN12C renal = system: SN12C renal
786-0 renal = system: 786-0 renal
T-47D breast = system: T-47D breast
NCI-H226 lung = system: NCI-H226 lung
SF-268 CNS = system: SF-268 CNS
UACC-62 melanoma = system: UACC-62 melanoma
NCI-H23 lung = system: NCI-H23 lung
UO-31 renal = system: UO-31 renal
SF-295 CNS = system: SF-295 CNS
SK-MEL-5 melanoma = system: SK-MEL-5 melanoma
UACC-257 melanoma = system: UACC-257 melanoma
ACHN renal = system: ACHN renal
TK-10 renal = system: TK-10 renal
A549 NSCLC = system: A549 NSCLC
K-562 leukemia = system: K-562 leukemia
SF-539 CNS = system: SF-539 CNS
HL-60(TB) leukemia = system: HL-60(TB) leukemia

Structure (SMILES)	TGI (MOLT-4 leukemia)	TGI (HCT-15 colon)	TGI (SN12C renal)	TGI (786-0 renal)	TGI (T-47D breast)	TGI (NCI-H226 lung)	TGI (SF-268 CNS)	TGI (UACC-62 melanoma)	TGI (NCI-H23 lung)	TGI (UO-31 renal)	TGI (SF-295 CNS)	TGI (SK-MEL-5 melanoma)	TGI (UACC-257 melanoma)	TGI (ACHN renal)	TGI (TK-10 renal)	TGI (A549 NSCLC)	TGI (K-562 leukemia)	TGI (SF-539 CNS)	TGI (HL-60(TB) leukemia)
Cc1cccc2c(N)c3cccc(C(=O)NCCCNCCN)c3nc12	17.4 µM	> 100 µM	2.25 µM	11.4 µM	24.8 µM	9.15 µM	3.19 µM	19 µM	10.9 µM	46.8 µM	20.9 µM	22.8 µM	31.1 µM	32.8 µM	51.7 µM	15 µM	> 100 µM	9.93 µM	> 64.3 µM
C1=C2C3=[N+](CCCC3)CC2Cc2ccsc21 (centres undefined)	> 100 µM	> 100 µM	> 100 µM	> 100 µM	> 100 µM	> 100 µM	> 100 µM	> 100 µM	> 100 µM	> 100 µM	> 100 µM	> 100 µM	> 100 µM	> 100 µM	> 100 µM	> 100 µM	> 100 µM	–	> 100 µM
O=C1NC(Nc2cccc(Cl)c2)=N/C1=C\c1ccc(Cl)c(Cl)c1	20.8 µM	18.6 µM	5.57 µM	13 µM	14.2 µM	17.2 µM	19.4 µM	21.6 µM	14.1 µM	20.6 µM	17.2 µM	19.1 µM	22.2 µM	17 µM	22.4 µM	16 µM	14.5 µM	22.2 µM	15.1 µM
O=C(CC(=O)n1nc(-c2ccccc2)c(N=Nc2ccc(Cl)cc2)c1-c1ccccc1)Nc1cccc(Cl)c1	> 100 µM	> 100 µM	> 100 µM	> 100 µM	> 100 µM	> 100 µM	–	> 100 µM	> 100 µM	> 100 µM	–	> 100 µM	> 100 µM	> 100 µM	> 100 µM	> 100 µM	> 100 µM	–	> 100 µM
CC(C(=O)N1c2ccccc2Sc2ccccc21)N1c2ccccc2Sc2ccccc21 (centres undefined)	> 100 µM	> 100 µM	> 100 µM	> 100 µM	> 100 µM	> 100 µM	> 100 µM	> 100 µM	> 100 µM	> 100 µM	> 100 µM	> 100 µM	> 100 µM	> 100 µM	> 100 µM	> 100 µM	> 100 µM	> 100 µM	> 100 µM
CC(=O)NCc1nc(C#N)c(N)o1	> 100 µM	> 100 µM	> 100 µM	> 100 µM	> 100 µM	> 100 µM	> 100 µM	> 100 µM	> 100 µM	> 100 µM	> 100 µM	–	> 100 µM	> 100 µM	> 100 µM	> 100 µM	> 100 µM	> 100 µM	> 100 µM
